Results published in patent publication US8546579B2, “Bicycloheteroaryl compounds as P2X7 modulators and uses thereof” (Evotec (US) Inc., priority 2006, dated 2013).

Target: T1, P2X7 receptor (Homo sapiens, UniProt Q99572)
T1 construct: host or cells: THP-1 cells differentiated with LPS and IFN-γ
T1 sequence (Q99572 1-595): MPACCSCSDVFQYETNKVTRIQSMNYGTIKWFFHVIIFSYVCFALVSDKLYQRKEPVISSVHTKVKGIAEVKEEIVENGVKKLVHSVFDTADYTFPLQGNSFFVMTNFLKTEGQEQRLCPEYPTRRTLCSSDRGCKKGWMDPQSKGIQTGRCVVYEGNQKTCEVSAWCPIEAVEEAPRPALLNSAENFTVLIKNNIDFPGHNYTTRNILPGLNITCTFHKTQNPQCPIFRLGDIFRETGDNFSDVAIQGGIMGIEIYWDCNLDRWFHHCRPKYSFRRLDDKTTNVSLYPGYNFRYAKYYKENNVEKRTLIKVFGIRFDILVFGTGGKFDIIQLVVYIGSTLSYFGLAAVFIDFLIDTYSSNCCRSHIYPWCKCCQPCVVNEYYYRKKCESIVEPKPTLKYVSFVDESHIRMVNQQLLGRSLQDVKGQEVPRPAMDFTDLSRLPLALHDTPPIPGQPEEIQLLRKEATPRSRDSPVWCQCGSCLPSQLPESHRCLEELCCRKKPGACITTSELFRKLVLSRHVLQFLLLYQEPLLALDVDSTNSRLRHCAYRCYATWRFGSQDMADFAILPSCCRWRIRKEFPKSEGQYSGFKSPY
Assay: IL-1β release assay in differentiated THP-1 cells stimulated with BzATP (Example 9)
Type: cell-based
Details: for inhibition at 0.3 µM: 0.3 μM compound, '+' class symbols, read-out: IL-1β % Inhib. @ 0.3 μM; for inhibition at 0.3 µM / inhibition at 0.1 µM: differentiated THP-1 cells, BzATP 250 uM; for IC50: THP-1 cells, BzATP-stimulated IL-1β release, four parameter logistic fit; for inhibition at 0.1 µM: 0.1 μM compound, '*' class symbols, read-out: IL-1β % Inhib. (asterisk classes, 0.1 μM)
Protocol: THP-1 cells (ATCC Cat # 285-IF-100) are plated in 96 well plates at a concentration of 200,000 cells per well and allowed to differentiate in RPMI-1640 media (ATCC Cat # 30-2001) containing 10% FBS, 100 IU/mL penicillin, 100 ug/mL streptomycin, 100 ng/mL LPS and 100 ng/mL IFN-γ for 16 hours. Following differentiation, the cells are treated for an additional 2 hours in RPMI-1640 media containing 100 IU/mL penicillin, 100 ug/mL streptomycin and fresh LPS at 100 ng/mL. The cells are then pretreated for 30 minutes with the compound of interest at the appropriate concentration in RPMI media containing 100 IU/mL penicillin, 100 ug/mL streptomycin. Following the pretreatment 2′,3′-O-(4-benzoylbenzoyl)-adenosine 5′-triphosphate (Sigma Aldrich Cat # B6396) is added to a final concentration of 250 uM and the cells are incubated for an additional 45 minutes. 30 uL of cell supernatant is then collected and IL-1β levels determined via ELISA (R&D systems Cat. # HSLB50) according to manufacturer's recommendations using the Tecan Safire plate reader. Background adjusted IL-1β levels of drug treated and non-treated cells are used to calculate the percent inhibition.
The compounds set forth in Table 1 were tested for activity in a cellular model as described herein. Specifically, cells were pretreated with differing amounts of the compound under test and released IL-1β determined as in Example 9, above. Measurements were made and IC50 values, presented in Table 2, below, were determined by fitting the data to a four parameter logistic equation using GraphPad Prism software (GraphPad Software, Inc). The equation may be expressed by the following formula: Y=Bottom+(Top−Bottom)/(1+10^((Log EC50−X)*HillSlope)) Where X is the logarithm of concentration, Y is the response and Y starts at Bottom and goes to Top with a sigmoid shape.

Row | SMILES | inhibition at 0.3 µM | IC50 | inhibition at 0.1 µM
1 | COc1ccc(CC(=O)Nc2cccc3c(=O)n(CCN(C)C)ccc23)cc1 [Compound 1001] | 51 to 75% | 240 nM | 
2 | Cc1ccc(CCC(=O)Nc2cccc3c(=O)n(CCN(C)C)ccc23)cc1 [Compound 1002] | ≥ 76% | 72.3 nM | 
3 | CN(C)CCn1ccc2c(NC(=O)CCc3ccccc3)cccc2c1=O [Compound 1003] | 0 to 25% | > 1000 nM | 
4 | CN(C)CCn1ccc2c(NC(=O)Cc3ccc(Cl)cc3)cccc2c1=O [Compound 1004] | ≥ 76% | 108 nM | 
5 | Cc1ccc(CC(=O)Nc2cccc3c(=O)n(CCN(C)C)ccc23)cc1 [Compound 1005] | ≥ 76% | 39.6 nM | 
6 | CN(C)CCn1ccc2c(NC(=O)c3ccccc3)cccc2c1=O [Compound 1006, N-[2-(2-Dimethylamino-ethyl)-1-oxo-1,2-dihydro-isoquinolin-5-yl]-benzamide] | 0 to 25% | 99.2 nM | 
7 | Cc1ccccc1C(=O)Nc1cccc2c(=O)n(CCN(C)C)ccc12 [Compound 1007] | 0 to 25% | > 1000 nM | 
8 | CN(C)CCn1ccc2c(NC(=O)c3ccc(S(C)(=O)=O)cc3)cccc2c1=O [Compound 1008] |  | > 1000 nM | 
9 | CN(C)CCn1ccc2c(NC(=O)CCc3ccc(S(C)(=O)=O)cc3)cccc2c1=O [Compound 1009] | 0 to 25% | > 1000 nM | 
10 | CN(C)CCn1ccc2c(NC(=O)CC3CCN(C(=O)OC(C)(C)C)CC3)cccc2c1=O [Compound 1010] | 0 to 25% | > 1000 nM | 
11 | CC(=O)OCCn1ccc2c(NC(=O)CC3CCN(C(=O)OC(C)(C)C)CC3)cccc2c1=O [Compound 1011] | 0 to 25% | > 1000 nM | 
12 | CC(=O)OCCn1ccc2c(NC(=O)C3CCN(C(=O)OC(C)(C)C)CC3)cccc2c1=O [Compound 1012] | 26 to 50% | 422 nM | 
13 | O=C(CC1CCCCCC1)Nc1cccc2c(=O)n(Cc3ccc4c(c3)OCCO4)ccc12 [Compound 1013, 2-Cycloheptyl-N-[2-(2,3-dihydro-benzo[1,4]dioxin-6-ylmethyl)-1-oxo-1,2-dihydro-isoquinolin-5-yl]-acetamide] | ≥ 76% | 0.355 nM | 
14 | CC(=O)OCCn1ccc2c(NC(=O)c3ccc(C(F)(F)F)cc3C(F)(F)F)cccc2c1=O [Compound 1014] | 26 to 50% | 326 nM | 
15 | CC(=O)OCCn1ccc2c(NC(=O)CC3(O)CCCCCC3)cccc2c1=O [Compound 1015] | ≥ 76% | 171 nM | 
16 | CC(=O)OCCn1ccc2c(NC(=O)Cc3ccc(C(F)(F)F)cc3)cccc2c1=O [Compound 1016] | ≥ 76% | 338 nM | 
17 | CN(C)CCn1ccc2c(NC(=O)C(Cl)c3ccccc3)cccc2c1=O (stereo not shown) [Compound 1017] | 26 to 50% | 367 nM | 
18 | CN(C)CCn1ccc2c(NC(=O)Cc3ccc(F)cc3)cccc2c1=O [Compound 1018] | 0 to 25% | > 1000 nM | 
19 | CN(C)CCn1ccc2c(NC(=O)Cc3ccccc3)cccc2c1=O [Compound 1019] | 0 to 25% | > 1000 nM | 
20 | CCC(C(=O)Nc1cccc2c(=O)n(CCN(C)C)ccc12)c1ccccc1 (stereo not shown) [Compound 1020] | 0 to 25% | > 1000 nM | 
21 | COc1cccc(CC(=O)Nc2cccc3c(=O)n(CCN(C)C)ccc23)c1 [Compound 1021] | ≥ 76% | > 1000 nM | 
22 | COc1ccc(CC(=O)Nc2cccc3c(=O)n(CCN(C)C)ccc23)c(OC)c1 [Compound 1022] | 0 to 25% | > 1000 nM | 
23 | CC(=O)OCCn1ccc2c(NC(=O)Cc3ccc(Cl)c(Cl)c3)cccc2c1=O [Compound 1023] | ≥ 76% | 53.5 nM | 
24 | Cn1ccc2c(NC(=O)CC3CCCCCC3)cccc2c1=O [Compound 1024, 2-Cycloheptyl-N-(2-methyl-1-oxo-1,2-dihydro-isoquinolin-5-yl)-acetamide] | ≥ 76% | 31.5 nM | 
25 | CCOc1ccc(C(=O)Nc2cccc3c(=O)n(CC4CCOCC4)ccc23)c(O)c1 [Compound 1025] | 0 to 25% |  | 
26 | O=C(Nc1cccc2c(=O)n(CC3CCOCC3)ccc12)c1ccc(-c2ccccc2)o1 [Compound 1026] |  |  | 26 to 50%
27 | COc1cccc(CCC(=O)Nc2cccc3c(=O)n(CC4CCOCC4)ccc23)c1 [Compound 1027] | 0 to 25% |  | 

Row | SMILES | inhibition at 0.3 µM | IC50 | inhibition at 0.1 µM
28 | Cc1ccc(C)c(CC(=O)Nc2cccc3c(=O)n(CC4CCOCC4)ccc23)c1 [Compound 1028] | 0 to 25% |  | 
29 | COc1ccc(C(=O)Nc2cccc3c(=O)n(CC4CCOCC4)ccc23)cc1Cl [Compound 1029] | 0 to 25% |  | 
30 | CCOc1cccc(C(=O)Nc2cccc3c(=O)n(CC4CCOCC4)ccc23)c1 [Compound 1030] | 0 to 25% |  | 
31 | O=C(CCc1ccccc1Cl)Nc1cccc2c(=O)n(CC3CCOCC3)ccc12 [Compound 1031] | 26 to 50% |  | 
32 | O=C(CCc1ccc2c(c1)OCO2)Nc1cccc2c(=O)n(CC3CCOCC3)ccc12 [Compound 1032] | 0 to 25% |  | 
33 | Cc1cc(C(=O)Nc2cccc3c(=O)n(CC4CCOCC4)ccc23)ccc1Cl [Compound 1033] | 0 to 25% |  | 
34 | CC1CCC(C(=O)Nc2cccc3c(=O)n(CCN(C)C)ccc23)CC1 (stereo not shown) [Compound 1034] |  |  | 26 to 50%
35 | CN(C)CCn1ccc2c(NC(=O)c3ccc(-c4ccccc4)o3)cccc2c1=O [Compound 1035] |  |  | 0 to 25%
36 | Cc1cc(C)c(CC(=O)Nc2cccc3c(=O)n(CCN(C)C)ccc23)c(C)c1 [Compound 1036] | 0 to 25% |  | 
37 | CN(C)CCn1ccc2c(NC(=O)CCc3ccccc3Cl)cccc2c1=O [Compound 1037] | 0 to 25% |  | 
38 | CN(C)CCn1ccc2c(NC(=O)CCc3ccc4c(c3)OCO4)cccc2c1=O [Compound 1038] | 0 to 25% |  | 
39 | COc1ccc(C(=O)Nc2cccc3c(=O)n(CCN4CCOCC4)ccc23)c(C)c1 [Compound 1039] |  |  | 0 to 25%
40 | O=C(Nc1cccc2c(=O)n(CCN3CCOCC3)ccc12)c1ccc(-c2ccccc2)o1 [Compound 1040] | 0 to 25% |  | 
41 | COc1cccc(CCC(=O)Nc2cccc3c(=O)n(CCN4CCOCC4)ccc23)c1 [Compound 1041] |  |  | 0 to 25%
42 | Cc1ccc(C)c(CC(=O)Nc2cccc3c(=O)n(CCN4CCOCC4)ccc23)c1 [Compound 1042] | 0 to 25% |  | 
43 | COc1ccc(C(=O)Nc2cccc3c(=O)n(CCN4CCOCC4)ccc23)cc1Cl [Compound 1043] | 0 to 25% |  | 
44 | CCOc1cccc(C(=O)Nc2cccc3c(=O)n(CCN4CCOCC4)ccc23)c1 [Compound 1044] | 0 to 25% |  | 
45 | O=C(CCc1ccccc1Cl)Nc1cccc2c(=O)n(CCN3CCOCC3)ccc12 [Compound 1045] | 0 to 25% |  | 
46 | O=C(CCc1ccc2c(c1)OCO2)Nc1cccc2c(=O)n(CCN3CCOCC3)ccc12 [Compound 1046] | 0 to 25% |  | 
47 | CC1CCC(C(=O)Nc2cccc3c(=O)n(CC(C)(C)C)ccc23)CC1 (stereo not shown) [Compound 1047] |  |  | 0 to 25%
48 | Cc1ccccc1CCC(=O)Nc1cccc2c(=O)n(CC(C)(C)C)ccc12 [Compound 1048] |  |  | 0 to 25%
49 | COc1cccc(CCC(=O)Nc2cccc3c(=O)n(CC(C)(C)C)ccc23)c1 [Compound 1049] | 0 to 25% |  | 
50 | Cc1cc(C)c(CC(=O)Nc2cccc3c(=O)n(CC(C)(C)C)ccc23)c(C)c1 [Compound 1050] | 0 to 25% |  | 
51 | Cc1ccc(C)c(CC(=O)Nc2cccc3c(=O)n(CC(C)(C)C)ccc23)c1 [Compound 1051] | 0 to 25% |  | 
52 | CCOc1cccc(C(=O)Nc2cccc3c(=O)n(CC(C)(C)C)ccc23)c1 [Compound 1053] | 0 to 25% |  | 
53 | CC(C)(C)Cn1ccc2c(NC(=O)CCc3ccccc3Cl)cccc2c1=O [Compound 1054] | 0 to 25% |  | 
